Test results from patent US8163724B2, “Glucocorticosteroids, processes for their preparation, pharmaceutical compositions containing them and their use in therapy” (AstraZeneca AB, priority 2007, dated 2012).

The molecules below were run against T1, recombinant human GR (Homo sapiens, UniProt P04150) (assay: Human Glucocorticoid Receptor (GR) Assay (fluorescence polarization, Panvera/Invitrogen kit)). Details: fluorescence polarization; GS Red tracer; 2 hours at room temperature; 100% control 10 μM Dexamethasone; read-out: Inhibition of GR binding, IC50.
T1 construct: purchased Panvera/Invitrogen P2812 (kit P2893)
T1 sequence (P04150 1-777): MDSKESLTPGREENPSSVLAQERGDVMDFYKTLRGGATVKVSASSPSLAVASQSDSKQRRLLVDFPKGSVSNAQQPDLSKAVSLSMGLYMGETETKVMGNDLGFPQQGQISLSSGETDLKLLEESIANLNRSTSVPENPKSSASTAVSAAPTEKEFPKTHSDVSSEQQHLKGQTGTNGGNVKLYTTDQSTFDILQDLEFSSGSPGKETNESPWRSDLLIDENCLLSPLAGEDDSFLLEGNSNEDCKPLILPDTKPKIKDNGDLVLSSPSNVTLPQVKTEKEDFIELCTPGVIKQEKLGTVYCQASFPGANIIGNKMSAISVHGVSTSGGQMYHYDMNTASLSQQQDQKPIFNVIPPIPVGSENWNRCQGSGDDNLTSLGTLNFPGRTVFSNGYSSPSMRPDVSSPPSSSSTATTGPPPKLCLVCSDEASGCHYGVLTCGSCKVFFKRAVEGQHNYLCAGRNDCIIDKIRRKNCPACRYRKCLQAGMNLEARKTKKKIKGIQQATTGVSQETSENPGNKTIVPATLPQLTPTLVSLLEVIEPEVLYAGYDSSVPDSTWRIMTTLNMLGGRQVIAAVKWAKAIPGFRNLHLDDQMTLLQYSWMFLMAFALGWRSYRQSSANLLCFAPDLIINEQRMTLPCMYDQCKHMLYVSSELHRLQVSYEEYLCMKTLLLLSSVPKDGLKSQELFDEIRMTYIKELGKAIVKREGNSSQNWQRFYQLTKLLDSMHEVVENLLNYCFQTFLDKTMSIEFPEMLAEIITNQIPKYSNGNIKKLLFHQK
Format: binding
Outline: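 Fluorescence polarization competition with recombinant GR and GS Red fluorescent ligand plus stabilizing peptide and DTT in potassium phosphate/sodium molybdate/EDTA buffer with DMSO. Incubated 2 hours at room temperature in the dark; 0% control DMSO, 100% control 10 μM dexamethasone.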

C[C@]12Cc3cnn(-c4ccc(F)nc4)c3C=C1CC[C@H]1[C@@H]3CC[C@](OC(=O)c4ccco4)(C(=O)SCC#N)[C@@]3(C)C[C@H](O)[C@@]12F [Example 211, (1R,3aS,3bS,10aS,10bR,11S,12aS)-1-{[(Cyanomethyl)sulfanyl]carbonyl}-10b-fluoro-7-(6-fluoropyridin-3-yl)-11-hydroxy-10a,12a-dimethyl-1,2,3,3a,3b,4,5,7,10,10a,10b,11,12,12a-tetradecahydrocyclopenta[5,6]naphtho[1,2-f]indazol-1-yl furan-2-carboxylate] and C[C@]12Cc3cnn(-c4ccc(F)nc4)c3C=C1CC[C@H]1[C@@H]3CC[C@](OC(=O)c4ccco4)(C(=O)SCF)[C@@]3(C)C[C@H](O)[C@@]12F [Example 212, (1R,3aS,3bS,10aS,10bR,11S,12aS)-1-{[(Fluoromethyl)sulfanyl]carbonyl}-10b-fluoro-7-(6-fluoropyridin-3-yl)-11-hydroxy-10a,12a-dimethyl-1,2,3,3a,3b,4,5,7,10a,10b,11,12,12a-tetradecahydrocyclopenta[5,6]naphtho[1,2-f]indazol-1-yl furan-2-carboxylate] are within 1.5-fold of each other in IC50: 2.2 nM for the first, 2.1 nM for the second.

First: CCC(=O)O[C@]1(C(=O)SCC#N)CC[C@H]2[C@@H]3C[C@H](C)C4=Cc5c(cnn5-c5ccc(F)cc5)C[C@]4(C)[C@H]3[C@@H](O)C[C@@]21C [Example 213, (1R,3aS,3bS,5S,10aR,10bS,11S,12aS)-1-{[(Cyanomethyl)sulfanyl]carbonyl}-7-(4-fluorophenyl)-11-hydroxy-5,10a,12a-trimethyl-1,2,3,3a,3b,4,5,7,10,10a,10b,11,12,12a-tetradecahydrocyclopenta[5,6]naphtho[1,2-f]indazol-1-yl propanoate]
Second: CCC(=O)O[C@]1(C(=O)SCF)CC[C@H]2[C@@H]3C[C@H](C)C4=Cc5c(cnn5-c5ccc(F)cc5)C[C@]4(C)[C@H]3[C@@H](O)C[C@@]21C [Example 214, (1R,3aS,3bS,5S,10aR,10bS,11S,12aS)-1-{[(Fluoromethyl)sulfanyl]carbonyl}-7-(4-fluorophenyl)-11-hydroxy-5,10a,12a-trimethyl-1,2,3,3a,3b,4,5,7,10,10a,10b,11,12,12a-tetradecahydrocyclopenta[5,6]naphtho[1,2-f]indazol-1-yl propanoate]
The IC50 of the first is 4.5-fold lower: 11 nM for the first, 49 nM for the second.

First: COCC(=O)O[C@]1(C(=O)SCC#N)CC[C@H]2[C@@H]3C[C@H](C)C4=Cc5c(cnn5-c5ccc(F)cc5)C[C@]4(C)[C@H]3[C@@H](O)C[C@@]21C [Example 215, (1R,3aS,3bS,5S,10aR,10bS,11S,12aS)-1-{[(Cyanomethyl)sulfanyl]carbonyl}-7-(4-fluorophenyl)-11-hydroxy-5,10a,12a-trimethyl-1,2,3,3a,3b,4,5,7,10,10a,10b,11,12,12a-tetradecahydrocyclopenta[5,6]naphtho[1,2-f]indazol-1-yl methoxyacetate]
Second: COCC(=O)O[C@]1(C(=O)SCF)CC[C@H]2[C@@H]3C[C@H](C)C4=Cc5c(cnn5-c5ccc(F)cc5)C[C@]4(C)[C@H]3[C@@H](O)C[C@@]21C [Example 216, (1R,3aS,3bS,5S,10aR,10bS,11S,12aS)-1-{[(Fluoromethyl)sulfanyl]carbonyl}-7-(4-fluorophenyl)-11-hydroxy-5,10a,12a-trimethyl-1,2,3,3a,3b,4,5,7,10,10a,10b,11,12,12a-tetradecahydrocyclopenta[5,6]naphtho[1,2]-indazol-1-yl methoxyacetate]
The IC50 of the first is 5.8-fold higher: 51 nM for the first, 8.8 nM for the second. The second is the more potent here.

“(1R,3aS,3bS,10aR,10bS,11S,12aS)-1-{[(Cyanomethyl)sulfanyl]carbonyl}-7-(4-fluorophenyl)-11-hydroxy-10a,12a-dimethyl-1,2,3,3a,3b,4,5,7,10,10a,10b,11,12,12a-tetradecahydrocyclopenta[5,6]naphtho[1,2]-indazol-1-yl 2-methyltetrahydrofuran-2-carboxylate [Example 132]” showed an IC50 of 4 nM.
